Like-named read-outs stand apart in the source and are kept apart here.
Columns and labels:
[1] = pH dependence of EPR spectra (titration), pK by fitting; type: physicochemical; details: for pK (pH dependence of EPR spectra): amino group protonation, 5 mM phosphate-citrate-borate buffer, 25 °C; for pK, first protonation (free base to monocation): transition at high pH; for pK, first protonation (free base to monocation) / pKa, second protonation (monocation to dication): EPR titration; for pKa, second protonation (monocation to dication): transition at low pH
Method: The pH-dependences of the EPR spectra were investigated using the 0.2 mM solutions of the nitroxides in 5 mM phosphate-citrate-borate buffer on a Bruker ER-200D-SRC spectrometer in 50 µL glass capillary for 0.2 mM radical solutions. Spectrometer settings: frequency, 9.87 GHz; microwave power, 5.0 mW; modulation amplitude, 0.1 mT; time constant, 50–100 ms; and conversion time, 50.12 ms. Small portions of 0.1–1 N HCl or 0.1–1 N NaOH were added to the stirred solution of a nitroxide in buffer at 25 °C, while the pH was controlled using pH-meter. After the equilibrium was established, the samples were taken from the solution and the EPR spectra were measured. The experimental points were fitted with the Equation (1) to obtain the pKa values. (1) aN(pH)=(p1+p2×10^pK1−pH+p3×10^pK1+pK2−2×pH)/1+10^pK1−pH+10^pK1+pK2−2×pH

[2] = Kinetics of nitroxide reduction with ascorbate in the presence of glutathione, followed by EPR; type: physicochemical; details: ascorbate 100–300 mM, glutathione 5 mM, 5 mM phosphate-citrate-borate buffer, pH 7.4, 25 °C; values are kred × 10^4
Method: (§1) For kinetic measurements in water, stock solutions of nitroxide, ascorbic acid and glutathione in phosphate-citrate-borate buffer (5 mM, pH 7.4) were prepared, and pH was adjusted to 7.4 with NaOH or HCl. All the solutions were deoxygenated with argon, carefully and quickly mixed in a small tube to attain final concentrations (nitroxide, 0.2–04 mM; GSH, 5 mM; and ascorbate, 100–300 mM) and were placed into an EPR capillary (50 μL). The choice of acsorbate concentration is a compromise between the low reduction rate, which requires very long experiment time and deviations of the kinetics from linearity at higher ascorbate concentrations due to ionic strength effects. Since the ascorbate oxidation is slow under these conditions, the 5 mM concentration of GSH was sufficient to suppress the reverse reaction of ascorbate radical with the hydroxylamine, because the rate of the ascorbate radical formation was low. The increase in GSH concentration produced little effect on the final reduction rate constant values. The capillary was sealed on both sides and placed into the EPR resonator. The decay of amplitude of the low-field component of the EPR spectrum was followed to obtain the kinetics. The initial part of the decay curves (up to 20 min) was used for fitting. Kinetics of the decay was fitted to a monoexponential function to calculate the first-order rate constants. Then, these constants were divided by the concentration of ascorbic acid to calculate the second-order reaction constants. Partition coefficients in a water–octanol mixture were estimated from the amplitudes of the EPR spectra of a nitroxide in water after extensive shaking with different portions of added octanol and separation using centrifugation.

[3] = Partition in octanol/aqueous 5 mM phosphate-citrate-borate buffer pH 7.4, estimated from EPR amplitudes; type: physicochemical; details: for partition octanol/buffer, result in words: after shaking with buffer pH 7.4; for partition coefficient (Kp): octanol/aqueous 5 mM phosphate-citrate-borate buffer pH 7.4
Method: Partition in octanol-water mixtures for ionizable compounds may depend on pH, and the pH changes may result from addition of the compound. Therefore, phosphate-citrate-borate buffer (5 mM, pH 7.4) was used for Kp measurements to make the partition closer to physiological conditions. […] Although monoamino derivatives 11 and 13 mainly exist in protonated form at pH 7.4, they still remain lipophilic and, therefore, should permeate cells. Amino groups are known to provide higher retention/intracellular accumulation due to transmembrane potential or ion-trapping effect. This effect was exploited in design of nitroxide contrast agents for MRI and radioprotectors. Cellular accumulation of spin labels like 11 and 13 may help to increase efficacy spin labeling using CuAAC or SPAAC.
as §1

[4] = values are kred × 10^4; cited from earlier work
[5] = Solubility in water; type: physicochemical

Compound	pK (pH dependence of EPR spectra) [1]	kred × 10^4 (rate of reduction with ascorbate) [2] [M^−1 s^−1]	partition coefficient (Kp) [3]	further results
CCC1(CC)C(CN)C(CO)C(CC)(CC)N1[O] (stereo not shown) [compound 6, 3-(Aminomethyl)-2,2,5,5-tetraethyl-4-(hydroxymethyl)pyrrolidin-1-oxyl]	ca. 9			
CCC1(CC)C(CN=[N+]=[N-])C(Cn2nnc(C(=O)[O-])c2C(=O)O)C(CC)(CC)N1[O].[Na+] (stereo not shown) [compound 20, 3-(Azidomethyl)-4-((4,5-dicarboxy-1H-1,2,3-triazol-1-yl)methyl)-2,2,5,5-tetraethylpyrrolidin-1-oxyl monosodium salt]		5.9 ± 1.2		partition octanol/buffer, result in words [3]: not detected in octanol
CCC1(CC)C(CN)C(CN(C)C)C(CC)(CC)N1[O] (stereo not shown) [14a, 3-(Aminomethyl)-4-((dimethylamino)methyl)-2,2,5,5-tetraethylpyrrolidin-1-oxyl]		6.4 ± 1.0		pK, first protonation (free base to monocation) [1]: ca. 11; pKa, second protonation (monocation to dication) [1]: ca. 3; pKa, second protonation (monocation to dication) ([1]; listed as N,N-dimethyl-3,4-bis-(aminomethyl)-2,2,5,5-tetraethylpyrrolidine-1-oxyl): 3
CCC1(CC)C(CN)=C(CN=[N+]=[N-])C(CC)(CC)N1[O] [13b, 3-(Aminomethyl)-4-(azidomethyl)-2,2,5,5-tetraethyl-2,5-dihydro-1H-pyrrol-1-oxyl]	ca. 9	7.6 ± 0.3	45 ± 2	
3-(Azidomethyl)-2,2,5,5-tetraethyl-4-((trimethylammonio)methyl)pyrrolidin-1-oxyl monoiodide [17a]		3.0 ± 1.0		partition octanol/buffer, result in words [3]: not detected in octanol
CCC1(CC)C(CO)C(CNC(=O)OC(C)(C)C)C(CC)(CC)N1[O] (stereo not shown) [compound 8, 3-(((tert-Butoxycarbonyl)amino)methyl)-2,2,5,5-tetraethyl-4-(hydroxymethyl)pyrrolidin-1-oxyl]		6.0 ± 2.0		
CCC1(CC)C(CO)C(CO)C(CC)(CC)N1[O] (stereo not shown) [compound 1, 3,4-bis-hydroxymethyl-2,2,5,5-tetraethylpyrrolidine-1-oxyl]			41 ± 2	kred × 10^4 (rate of reduction with ascorbate) [4]: 3.3 ± 0.8 [26] M^−1 s^−1
CCC1(CC)CC(C(=O)O)C(CC)(CC)N1[O] (stereo not shown) [compound 21, 3-carboxy-2,2,5,5-tetraethylpyrrolidine-1-oxyl, reference compound]			270	kred × 10^4 (rate of reduction with ascorbate) [4]: 12.5 ± 0.3 [22] M^−1 s^−1
3-((2,5-Dioxo-2,5-dihydro-1H-pyrrol-1-yl)methyl)-2,2,5,5-tetraethyl-4-((trimethylammonio)methyl)pyrrolidin-1-oxyl monoiodide [16a]				partition octanol/buffer, result in words [3]: not detected in octanol
CCC1(CC)C(CO)C(CN2C(=O)C=CC2=O)C(CC)(CC)N1[O] (stereo not shown) [compound 7, 3-((2,5-Dioxo-2,5-dihydro-1H-pyrrol-1-yl)methyl)-2,2,5,5-tetraethyl-4-(hydroxymethyl)pyrrolidin-1-oxyl]			84 ± 2	solubility in water [5]: poorly soluble in water
CCC1(CC)C(CNC(=O)OC(C)(C)C)C(COS(C)(=O)=O)C(CC)(CC)N1[O] (stereo not shown) [compound 9, 3-(((tert-Butoxycarbonyl)amino)methyl)-2,2,5,5-tetraethyl-4-(((methylsulfonyl)oxy)methyl)pyrrolidin-1-oxyl]		3.0 ± 1.0		
3-(Azidomethyl)-2,2,5,5-tetraethyl-4-((trimethylammonio)methyl)-2,5-dihydro-1H-pyrrol-1-oxyl monoiodide [17b]		16 ± 3.0		partition octanol/buffer, result in words [3]: not detected in octanol
CCC1(CC)C(CN=[N+]=[N-])C(CN(C)C)C(CC)(CC)N1[O] (stereo not shown) [11a, 3-(Azidomethyl)-4-((dimethylamino)methyl)-2,2,5,5-tetraethylpyrrolidin-1-oxyl]	ca. 9	4.0 ± 1.0	52 ± 5	
3-((2,5-Dioxo-2,5-dihydro-1H-pyrrol-1-yl)methyl)-2,2,5,5-tetraethyl-4-((trimethylammonio)methyl)-2,5-dihydro-1H-pyrrol-1-oxyl monoiodide [16b]				partition octanol/buffer, result in words [3]: not detected in octanol
CCC1(CC)C(CN)=C(CN(C)C)C(CC)(CC)N1[O] [14b, 3-(Aminomethyl)-4-((dimethylamino)methyl)-2,2,5,5-tetraethyl-2,5-dihydro-1H-pyrrol-1-oxyl]		8 ± 1.0	7 ± 0.3	pK, first protonation (free base to monocation) [1]: ca. 11; pKa, second protonation (monocation to dication) [1]: ca. 3
CCC1(CC)C(CN)C(CN=[N+]=[N-])C(CC)(CC)N1[O] (stereo not shown) [13a, 3-(Aminomethyl)-4-(azidomethyl)-2,2,5,5-tetraethylpyrrolidin-1-oxyl]	ca. 9	6.3 ± 0.9	350 ± 35	
CCC1(CC)C(CO)=C(CO)C(CC)(CC)N1[O] [compound 22, 2,2,5,5-tetraethyl-3,4-bis(hydroxymethyl)-2,5-dihydro-1H-pyrrol-1-oxyl, reference compound]		3.4 ± 0.1	37 ± 2	
CCC1(CC)C(CO)C(CN=[N+]=[N-])C(CC)(CC)N1[O] (stereo not shown) [compound 5, 3-(Azidomethyl)-2,2,5,5-tetraethyl-4-(hydroxymethyl)pyrrolidin-1-oxyl]				solubility in water [5]: poorly soluble in water
CCC1(CC)C(CN=[N+]=[N-])=C(CN(C)C)C(CC)(CC)N1[O] [11b, 3-(Azidomethyl)-4-((dimethylamino)methyl)-2,2,5,5-tetraethyl-2,5-dihydro-1H-pyrrol-1-oxyl]	ca. 9	15 ± 4.0	15 ± 1	
CCC1(CC)C(CN(C)C)=C(CN2C(=O)C=CC2=O)C(CC)(CC)N1[O] [15b, 3-((Dimethylamino)methyl)-4-((2,5-dioxo-2,5-dihydro-1H-pyrrol-1-yl)methyl)-2,2,5,5-tetraethyl-2,5-dihydro-1H-pyrrol-1-oxyl]	ca. 9			
CCC1(CC)C(CN(C)C)C(CN2C(=O)C=CC2=O)C(CC)(CC)N1[O] (stereo not shown) [15a, 3-((Dimethylamino)methyl)-4-((2,5-dioxo-2,5-dihydro-1H-pyrrol-1-yl)methyl)-2,2,5,5-tetraethylpyrrolidin-1-oxyl]	ca. 9			
CCC1(CC)C(CN=[N+]=[N-])C(CNC(=O)OC(C)(C)C)C(CC)(CC)N1[O] (stereo not shown) [compound 10, 3-(Azidomethyl)-4-((tert-butoxycarbonylamino)methyl)-2,2,5,5-tetraethylpyrrolidin-1-oxyl]		3.0 ± 1.0		
